According to ChEMBL document CHEMBL1146150, “Synthesis and antibacterial activity of novel neamine derivatives” (2006):
Converted amounts (≈) assume the structure as drawn.

Each compound was assayed on Staphylococcus aureus (assay: Antibacterial activity against Staphylococcus aureus RN4220 by twofold agar dilution method).
Assay type: functional
Compound NCCCNC(=O)O[C@@H]1[C@@H](O)[C@H](NC(=O)[C@@H](O)CCN)C[C@H](N)[C@H]1O[C@H]1O[C@H](CN)CC[C@H]1N has an MIC of 16 µg/mL (≈ 32.5 µM). NCCNC(=O)O[C@@H]1[C@@H](O)[C@H](NC(=O)[C@@H](O)CCN)C[C@H](N)[C@H]1O[C@H]1O[C@H](CN)CC[C@H]1N gave an MIC of 2 µg/mL (≈ 4.19 µM). Work on NCC[C@H](O)C(=O)N[C@@H]1C[C@H](N)[C@@H](O[C@H]2O[C@H](CN)CC[C@H]2N)[C@H](O)[C@H]1O yielded an MIC of 4 µg/mL (≈ 10.2 µM). Compound NCCCNC(=O)O[C@@H]1[C@@H](O)[C@H](O[C@H]2O[C@H](CN)CC[C@H]2N)[C@@H](N)C[C@H]1NC(=O)[C@@H](O)CCN has an MIC of 16 µg/mL (≈ 32.5 µM).

These compounds were tested on Escherichia coli (assay: Antibacterial activity against Escherichia coli NIH JC2 by twofold agar dilution method).
Assay type: functional
In the case of NCCCNC(=O)O[C@@H]1[C@@H](O)[C@H](NC(=O)[C@@H](O)CCN)C[C@H](N)[C@H]1O[C@H]1O[C@H](CN)CC[C@H]1N, the MIC was 32 µg/mL (≈ 65.1 µM). NCCNC(=O)O[C@@H]1[C@@H](O)[C@H](NC(=O)[C@@H](O)CCN)C[C@H](N)[C@H]1O[C@H]1O[C@H](CN)CC[C@H]1N gave an MIC of 8 µg/mL (≈ 16.8 µM). Work on NCC[C@H](O)C(=O)N[C@@H]1C[C@H](N)[C@@H](O[C@H]2O[C@H](CN)CC[C@H]2N)[C@H](O)[C@H]1O yielded an MIC of 8 µg/mL (≈ 20.4 µM). Work on NCCCNC(=O)O[C@@H]1[C@@H](O)[C@H](O[C@H]2O[C@H](CN)CC[C@H]2N)[C@@H](N)C[C@H]1NC(=O)[C@@H](O)CCN yielded an MIC of 64 µg/mL (≈ 130 µM).

What follows are compounds tested on Pseudomonas aeruginosa (assay: Antibacterial activity against Pseudomonas aeruginosa GN3054 expressing AAC(3)-I by twofold agar dilution method).
Assay type: functional
NCCCNC(=O)O[C@@H]1[C@@H](O)[C@H](NC(=O)[C@@H](O)CCN)C[C@H](N)[C@H]1O[C@H]1O[C@H](CN)CC[C@H]1N showed an MIC of 64 µg/mL (≈ 130 µM). NCCNC(=O)O[C@@H]1[C@@H](O)[C@H](NC(=O)[C@@H](O)CCN)C[C@H](N)[C@H]1O[C@H]1O[C@H](CN)CC[C@H]1N was tested, and the MIC was 16 µg/mL (≈ 33.5 µM). Work on NCC[C@H](O)C(=O)N[C@@H]1C[C@H](N)[C@@H](O[C@H]2O[C@H](CN)CC[C@H]2N)[C@H](O)[C@H]1O yielded an MIC of 16 µg/mL (≈ 40.9 µM). NCCCNC(=O)O[C@@H]1[C@@H](O)[C@H](O[C@H]2O[C@H](CN)CC[C@H]2N)[C@@H](N)C[C@H]1NC(=O)[C@@H](O)CCN was tested, and the MIC was 128 µg/mL (≈ 260 µM).

The compounds below were run on Staphylococcus aureus (assay: Antibacterial activity against Staphylococcus aureus RN4220/pMS520 expressing AAD(4')-I enzyme by twofold agar dilution method).
Assay type: functional
Compound NCCCNC(=O)O[C@@H]1[C@@H](O)[C@H](NC(=O)[C@@H](O)CCN)C[C@H](N)[C@H]1O[C@H]1O[C@H](CN)CC[C@H]1N has an MIC of 16 µg/mL (≈ 32.5 µM). Compound NCCNC(=O)O[C@@H]1[C@@H](O)[C@H](NC(=O)[C@@H](O)CCN)C[C@H](N)[C@H]1O[C@H]1O[C@H](CN)CC[C@H]1N has an MIC of 2 µg/mL (≈ 4.19 µM). NCC[C@H](O)C(=O)N[C@@H]1C[C@H](N)[C@@H](O[C@H]2O[C@H](CN)CC[C@H]2N)[C@H](O)[C@H]1O gave an MIC of 4 µg/mL (≈ 10.2 µM). Work on NCCCNC(=O)O[C@@H]1[C@@H](O)[C@H](O[C@H]2O[C@H](CN)CC[C@H]2N)[C@@H](N)C[C@H]1NC(=O)[C@@H](O)CCN yielded an MIC of 16 µg/mL (≈ 32.5 µM).

What follows are compounds tested on Pseudomonas aeruginosa (assay: Antibacterial activity against Pseudomonas aeruginosa GN4925 expressing AAC(6')-Ib by twofold agar dilution method).
Assay type: functional
NCCCNC(=O)O[C@@H]1[C@@H](O)[C@H](NC(=O)[C@@H](O)CCN)C[C@H](N)[C@H]1O[C@H]1O[C@H](CN)CC[C@H]1N gave an MIC of 128 µg/mL (≈ 260 µM). NCCNC(=O)O[C@@H]1[C@@H](O)[C@H](NC(=O)[C@@H](O)CCN)C[C@H](N)[C@H]1O[C@H]1O[C@H](CN)CC[C@H]1N gave an MIC of 8 µg/mL (≈ 16.8 µM). In the case of NCC[C@H](O)C(=O)N[C@@H]1C[C@H](N)[C@@H](O[C@H]2O[C@H](CN)CC[C@H]2N)[C@H](O)[C@H]1O, the MIC was 64 µg/mL (≈ 163 µM). For NCCCNC(=O)O[C@@H]1[C@@H](O)[C@H](O[C@H]2O[C@H](CN)CC[C@H]2N)[C@@H](N)C[C@H]1NC(=O)[C@@H](O)CCN, the MIC was 128 µg/mL (≈ 260 µM).

What follows are compounds tested on Staphylococcus aureus (assay: Antibacterial activity against gentamycin and arbekacin-resistant Staphylococcus aureus RN4220/pMF490 expressing AAC(6')-APH(2'') enzyme by twofold agar dilution method).
Assay type: functional
For NCCCNC(=O)O[C@@H]1[C@@H](O)[C@H](NC(=O)[C@@H](O)CCN)C[C@H](N)[C@H]1O[C@H]1O[C@H](CN)CC[C@H]1N, the MIC was 32 µg/mL (≈ 65.1 µM). NCCNC(=O)O[C@@H]1[C@@H](O)[C@H](NC(=O)[C@@H](O)CCN)C[C@H](N)[C@H]1O[C@H]1O[C@H](CN)CC[C@H]1N showed an MIC of 2 µg/mL (≈ 4.19 µM). NCC[C@H](O)C(=O)N[C@@H]1C[C@H](N)[C@@H](O[C@H]2O[C@H](CN)CC[C@H]2N)[C@H](O)[C@H]1O was tested, and the MIC was 4 µg/mL (≈ 10.2 µM). Work on NCCCNC(=O)O[C@@H]1[C@@H](O)[C@H](O[C@H]2O[C@H](CN)CC[C@H]2N)[C@@H](N)C[C@H]1NC(=O)[C@@H](O)CCN yielded an MIC of 16 µg/mL (≈ 32.5 µM).

The compounds below were run on Staphylococcus aureus (assay: Antibacterial activity against Staphylococcus aureus RN4220/pCR1948 expressing AAC(6')-APH(2'') enzyme by twofold agar dilution method).
Assay type: functional
In the case of NCCCNC(=O)O[C@@H]1[C@@H](O)[C@H](NC(=O)[C@@H](O)CCN)C[C@H](N)[C@H]1O[C@H]1O[C@H](CN)CC[C@H]1N, the MIC was 16 µg/mL (≈ 32.5 µM). Work on NCCNC(=O)O[C@@H]1[C@@H](O)[C@H](NC(=O)[C@@H](O)CCN)C[C@H](N)[C@H]1O[C@H]1O[C@H](CN)CC[C@H]1N yielded an MIC of 2 µg/mL (≈ 4.19 µM). For NCC[C@H](O)C(=O)N[C@@H]1C[C@H](N)[C@@H](O[C@H]2O[C@H](CN)CC[C@H]2N)[C@H](O)[C@H]1O, the MIC was 2 µg/mL (≈ 5.11 µM). In the case of NCCCNC(=O)O[C@@H]1[C@@H](O)[C@H](O[C@H]2O[C@H](CN)CC[C@H]2N)[C@@H](N)C[C@H]1NC(=O)[C@@H](O)CCN, the MIC was 16 µg/mL (≈ 32.5 µM).

What follows are compounds tested on Pseudomonas aeruginosa (assay: Antibacterial activity against Pseudomonas aeruginosa PAO1 by twofold agar dilution method).
Assay type: functional
Work on NCCCNC(=O)O[C@@H]1[C@@H](O)[C@H](NC(=O)[C@@H](O)CCN)C[C@H](N)[C@H]1O[C@H]1O[C@H](CN)CC[C@H]1N yielded an MIC of 32 µg/mL (≈ 65.1 µM). In the case of NCCNC(=O)O[C@@H]1[C@@H](O)[C@H](NC(=O)[C@@H](O)CCN)C[C@H](N)[C@H]1O[C@H]1O[C@H](CN)CC[C@H]1N, the MIC was 8 µg/mL (≈ 16.8 µM). With NCC[C@H](O)C(=O)N[C@@H]1C[C@H](N)[C@@H](O[C@H]2O[C@H](CN)CC[C@H]2N)[C@H](O)[C@H]1O the MIC was 8 µg/mL (≈ 20.4 µM). Compound NCCCNC(=O)O[C@@H]1[C@@H](O)[C@H](O[C@H]2O[C@H](CN)CC[C@H]2N)[C@@H](N)C[C@H]1NC(=O)[C@@H](O)CCN has an MIC of 32 µg/mL (≈ 65.1 µM).

What follows are compounds tested on Staphylococcus aureus (assay: Antibacterial activity against gentamycin and arbekacin-resistant Staphylococcus aureus MF490 expressing AAD(4'), AAC(6')-APH(2'') enzymes by twofold agar dilution method).
Assay type: functional
For NCCCNC(=O)O[C@@H]1[C@@H](O)[C@H](NC(=O)[C@@H](O)CCN)C[C@H](N)[C@H]1O[C@H]1O[C@H](CN)CC[C@H]1N, the MIC was 128 µg/mL (≈ 260 µM). NCCNC(=O)O[C@@H]1[C@@H](O)[C@H](NC(=O)[C@@H](O)CCN)C[C@H](N)[C@H]1O[C@H]1O[C@H](CN)CC[C@H]1N was tested, and the MIC was 8 µg/mL (≈ 16.8 µM). With NCC[C@H](O)C(=O)N[C@@H]1C[C@H](N)[C@@H](O[C@H]2O[C@H](CN)CC[C@H]2N)[C@H](O)[C@H]1O the MIC was 8 µg/mL (≈ 20.4 µM). NCCCNC(=O)O[C@@H]1[C@@H](O)[C@H](O[C@H]2O[C@H](CN)CC[C@H]2N)[C@@H](N)C[C@H]1NC(=O)[C@@H](O)CCN gave an MIC of 64 µg/mL (≈ 130 µM).
